{"source": "patent US20250177582A1", "about": "“HIGH-AFFINITY LIGANDS OF FIBROBLAST ACTIVATION PROTEIN FOR TARGETED DELIVERY APPLICATIONS” (PHILOCHEM AG, priority 2022, published 2025)", "key": {"Serum stability": {"test": "Serum stability", "assay_type": "in vitro ADME", "conditions": "mouse, in vitro, time points 0 to 48 h", "description": "In two separate Eppendorf, 4 μL of compound 28 and 38 (1 mM solution in DMSO) and 36 μL of serum for each time point were mixed. After each specific time point, 40 μL of mixture were freezed in liquid nitrogen and then stored at −20° C. Once all the samples were collected, samples were defrosted at 24° C. and 300 μL of ACN were added. The samples were then centrifuged at 10′000 RPM for 5 minutes. 200 μL of the supernatant were transferred to a second Eppendorf tube and dried under vacuum for 2 h. The residue was carefully resuspended in 30 μL of mQ Water:acetonitrile=9:1 mixture (with 0.1% v/v of formic acid) and analysed by LC-MS. Each time point was performed in triplicate. The percentage of intact […] was determined extracting the area of the UV peak. The obtained values were normalized on the average area at time point corresponding to 0 hours."}, "murine FAP": {"target": "murine FAP (Mus musculus (Mouse), UniProt P97321)", "sequence (P97321 whole entry)": "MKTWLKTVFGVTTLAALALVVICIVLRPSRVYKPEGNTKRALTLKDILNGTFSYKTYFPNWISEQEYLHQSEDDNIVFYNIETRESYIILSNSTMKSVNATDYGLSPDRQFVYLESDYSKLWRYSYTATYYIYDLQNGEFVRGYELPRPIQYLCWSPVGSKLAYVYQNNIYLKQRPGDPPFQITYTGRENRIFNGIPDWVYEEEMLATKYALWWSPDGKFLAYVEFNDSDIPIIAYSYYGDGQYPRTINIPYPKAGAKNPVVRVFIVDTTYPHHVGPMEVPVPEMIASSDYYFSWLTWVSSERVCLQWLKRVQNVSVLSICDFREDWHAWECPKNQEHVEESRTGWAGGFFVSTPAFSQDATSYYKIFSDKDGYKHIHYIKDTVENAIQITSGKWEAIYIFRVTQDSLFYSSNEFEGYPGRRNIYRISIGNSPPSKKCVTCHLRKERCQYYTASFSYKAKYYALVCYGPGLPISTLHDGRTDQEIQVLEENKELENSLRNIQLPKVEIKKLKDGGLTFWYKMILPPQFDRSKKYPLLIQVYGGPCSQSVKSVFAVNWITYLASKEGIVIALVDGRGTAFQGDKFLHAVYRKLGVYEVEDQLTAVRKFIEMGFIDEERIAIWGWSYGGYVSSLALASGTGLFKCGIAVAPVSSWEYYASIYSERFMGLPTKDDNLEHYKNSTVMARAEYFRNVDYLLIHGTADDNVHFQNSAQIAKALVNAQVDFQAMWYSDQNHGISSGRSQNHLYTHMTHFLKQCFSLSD", "test": "Inhibition assay of FAP (fluorogenic substrate Z-Gly-Pro-AMC)", "assay_type": "biochemical", "conditions": "substrate Z-Gly-Pro-AMC 20 μM; 66 pM murine FAP; room temperature", "description": "(§1) Inhibition assay of FAP. The compounds were precisely weighed (range between […]) on a micro-scale (HuberLab, Sartorius QUINTIX35-1S) and dissolved in DMSO to prepare stock solutions at 1 mM. Stock solutions were further diluted with FAP activation buffer (50 mM Tris, 100 mM NaCl, 1 mM EDTA, pH=7.4) to a final DMSO concentration of 10% v/v. 10 μL of each inhibitor were serially diluted in a 384 well plate (grenier-bio one, PS, F-bottom, Black, non-binding) with 10 μL of 10% DMSO FAP buffer (1:1 dilution). FAP (human and murine) was diluted to the desired concentration with FAP activation buffer and added to the serial dilution of inhibitor (10 μL for each well). Each protein-inhibitor solution was incubated for 30 minutes at room temperature. Each measurement was performed with an enzyme concentration (FAP) lower than the expected IC50. A 60 μM solution of substrate (Z-Gly-Pro-AMC) in FAP activation buffer (<1% DMSO) was added to the plate (10 μL for each well). The reaction was incubated from 1 minute to 48 hours (see FIG. 2) at room temperature (22° C.-25° C.). The emission was read at 465 nm (excitation wavelength 360 nm) for 40 μs by Tecan Spark (s.n. 1808004082). The following controls were added to each row: positive control (no inhibitor control, 10 μL of 10% DMSO FAP buffer+10 μL of FAP solution+10 μL of substrate solution), negative control (no protein control, 10 μL of 10% DMSO FAP buffer+10 μL of FAP activation buffer+10 μL of substrate solution).\n(§2) Normalization of values: The “% of FAP activity” can be calculated with the following formula:\n(§3) FIG. 3: Inhibition assay performed with compounds 1, 2, 3, 4, 5, 6, 8 against a) 66 pM human FAP and b) 66 pM murine FAP. The concentration of substrate (Z-Gly-Pro-AMC) was kept constant=20 μM. The assay was incubated for 48 hours at 22.6° C. Error bars display SEM.\n(§4) FIG. 4: a) Inhibition assay performed with compounds 8, 9 and 10 against 66 pM human FAP. The assay was incubated for 17 hours at 25° C. b) Inhibition assay performed with compound 9 against 66 pM murine FAP. The assay was incubated for 17 hours at 25° C. In both assays the concentration of substrate (Z-Gly-Pro-AMC) was kept constant=20 μM. Error bars display SEM."}, "human FAP": {"target": "human FAP (Homo sapiens (Human), UniProt Q12884)", "sequence (Q12884 whole entry)": "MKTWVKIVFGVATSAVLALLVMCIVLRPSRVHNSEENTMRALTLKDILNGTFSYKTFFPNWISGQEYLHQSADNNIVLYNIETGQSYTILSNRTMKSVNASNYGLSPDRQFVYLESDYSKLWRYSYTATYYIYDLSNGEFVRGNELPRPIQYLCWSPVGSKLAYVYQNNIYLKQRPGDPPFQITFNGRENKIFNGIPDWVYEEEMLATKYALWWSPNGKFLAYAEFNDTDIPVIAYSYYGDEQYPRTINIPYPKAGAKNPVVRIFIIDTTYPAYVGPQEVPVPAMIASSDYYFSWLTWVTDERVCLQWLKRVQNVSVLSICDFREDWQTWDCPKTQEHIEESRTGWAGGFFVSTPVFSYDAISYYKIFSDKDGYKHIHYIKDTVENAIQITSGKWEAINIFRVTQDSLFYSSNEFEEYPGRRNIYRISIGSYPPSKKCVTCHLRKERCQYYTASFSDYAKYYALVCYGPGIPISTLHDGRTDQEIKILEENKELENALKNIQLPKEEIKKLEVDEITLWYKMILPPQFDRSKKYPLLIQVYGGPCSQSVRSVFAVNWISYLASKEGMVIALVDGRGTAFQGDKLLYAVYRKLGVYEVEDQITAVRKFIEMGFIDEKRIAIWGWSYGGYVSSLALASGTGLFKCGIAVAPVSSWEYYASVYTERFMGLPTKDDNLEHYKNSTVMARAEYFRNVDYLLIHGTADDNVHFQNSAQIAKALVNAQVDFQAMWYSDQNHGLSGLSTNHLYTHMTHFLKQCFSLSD", "test": "Inhibition assay of FAP (fluorogenic substrate Z-Gly-Pro-AMC)", "assay_type": "biochemical", "conditions": "substrate Z-Gly-Pro-AMC 20 μM; FAP concentration lower than expected IC50 (66 pM in FIG. 3, 4); room temperature; read-out: IC50 vs human FAP", "description": "as §1, §2\nThe concentration of substrate (Z-Gly-Pro-AMC) was kept constant=20 μM. Dashed lines corresponds to sets of data with unstable fitting. […] Error bars display SEM.\nas §3, §4\nFIG. 19. A: Chemical structures and corresponding IC50(hFAP) values of compounds according to the present invention. B: Chemical structures and corresponding IC50 values of compounds where the propargyl moiety at position AA^2 was replaced by different groups (Me, iPr, Bn) using both R and S stereoisomers. The sites of modification have been highlighted with arrows. Each measurement was performed with a FAP concentration lower than the expected IC50. Depending on FAP concentration, the fluorescence was measured between 10 minutes and 48 h (at room temperature) after the addition of the fluorogenic substrate (Z-Gly-Pro-AMC). IC50 values and standard errors were calculated using “[Inhibitor] vs. response—Variable slope (four parameters)” fitting (Graphpad Prism). […] By introducing the quinoline-based moiety, a single-digit nanomolar inhibitor was obtained. […] The replacement of propargylglycine with S-phenylalanine improved potency of the lead compound of additional ˜2-folds (compound 14)."}}, "note": "pIC50: −log10 of the molar value."}
{"smiles": "CN(C)C(=N)NCCCC(NC(=O)CCC(=O)Nc1cccc2c(C(=O)NCC(=O)N3CC(F)(F)C[C@H]3C#N)ccnc12)C(=O)N[C@@H](Cc1ccccc1)C(=O)NCCNC(=O)CCC(C(=O)O)N1CCN(CC(=O)O)CCN(CC(=O)O)CCN(CC(=O)O)CC1", "note": "(stereo in doubt) [Compound 28]", "values": [{"measurement": "half-life at 100 µM", "setting": "Serum stability", "value": "> 48", "unit": "h"}, {"measurement": "pIC50", "setting": "murine FAP", "value": 11.32}, {"measurement": "pIC50", "setting": "human FAP", "value": 10.52}]}
